Test results: patent US11225645B2 (priority 2002, dated 2022)
“Also recorded” adds a separate entry of the source. Where two headings read alike, the source gives them in different places.

Columns and labels:
[1] = system: coenzyme-binding glucose dehydrogenase; experiment: Inhibitor test, additives added to Enzymatic activity measurement method 1; assay type: biochemical, Aspergillus terreus
[2] = system: glucose dehydrogenase whose coenzyme is a flavin adenine dinucleotide of Aspergillus oryzae; conditions: cited from earlier work
[3] = system: coenzyme-binding glucose dehydrogenase; experiment: Substrate specificity and Km value, Enzymatic activity measurement method 1; assay type: biochemical, Aspergillus terreus
Method: Employing each of D-glucose and other substrates (each at 333 mM as a final concentration, except for D-cellobiose at 193 mM, D-trehalose and D-raffinose at 121 mM), the enzymatic activity of this enzyme was measured by the Enzymatic activity measurement method 1. The activity on each substrate is represented as a relative value to the activity of this enzyme on D-glucose being regarded as 100%, and shown in Table 1.
Similarly, the relative reactivities (enzymatic activity) on D-glucose and maltose each at two final concentrations, i.e. 550 mM and 100 mM, were measured. The results are represented as relative values based on the value on D-glucose.

[4] = target: glucose dehydrogenase whose coenzyme is the pyrroloquinolinequinone derived from Escherichia coli (Escherichia coli, UniProt P15877); conditions: relative to glucose = 100%; cited from earlier work
glucose dehydrogenase whose coenzyme is the pyrroloquinolinequinone derived from Escherichia coli, sequence (P15877 whole entry): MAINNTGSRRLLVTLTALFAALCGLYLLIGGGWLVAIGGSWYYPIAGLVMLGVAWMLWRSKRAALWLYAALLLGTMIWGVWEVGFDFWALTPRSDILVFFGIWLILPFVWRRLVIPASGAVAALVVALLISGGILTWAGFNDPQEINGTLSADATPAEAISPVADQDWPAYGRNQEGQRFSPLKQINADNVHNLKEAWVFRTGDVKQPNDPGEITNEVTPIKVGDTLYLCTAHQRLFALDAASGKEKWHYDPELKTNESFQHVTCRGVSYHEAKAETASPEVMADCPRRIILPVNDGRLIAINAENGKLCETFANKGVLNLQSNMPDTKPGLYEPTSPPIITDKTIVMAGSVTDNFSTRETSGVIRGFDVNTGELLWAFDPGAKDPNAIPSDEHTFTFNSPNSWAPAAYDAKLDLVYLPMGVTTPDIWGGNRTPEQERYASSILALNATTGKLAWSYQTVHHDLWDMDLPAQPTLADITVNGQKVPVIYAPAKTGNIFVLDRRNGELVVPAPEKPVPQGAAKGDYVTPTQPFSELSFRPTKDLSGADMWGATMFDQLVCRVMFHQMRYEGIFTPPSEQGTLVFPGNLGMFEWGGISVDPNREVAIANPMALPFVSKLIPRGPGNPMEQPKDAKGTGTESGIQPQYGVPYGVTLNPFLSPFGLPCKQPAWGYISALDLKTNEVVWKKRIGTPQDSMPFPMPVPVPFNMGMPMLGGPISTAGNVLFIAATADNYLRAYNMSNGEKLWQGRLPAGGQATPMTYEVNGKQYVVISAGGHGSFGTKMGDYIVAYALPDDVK

[5] = system: glucose dehydrogenase whose coenzyme is the pyrroloquinolinequinone derived from Pseudomonas sp.; conditions: relative to glucose = 100%; cited from earlier work
[6] = target: glucose dehydrogenase whose coenzyme is the pyrroloquinolinequinone derived from Gluconobacter suboxydans (Gluconobacter oxydans, UniProt P27175); conditions: relative to glucose = 100%; cited from earlier work
glucose dehydrogenase whose coenzyme is the pyrroloquinolinequinone derived from Gluconobacter suboxydans, sequence (P27175 34-808): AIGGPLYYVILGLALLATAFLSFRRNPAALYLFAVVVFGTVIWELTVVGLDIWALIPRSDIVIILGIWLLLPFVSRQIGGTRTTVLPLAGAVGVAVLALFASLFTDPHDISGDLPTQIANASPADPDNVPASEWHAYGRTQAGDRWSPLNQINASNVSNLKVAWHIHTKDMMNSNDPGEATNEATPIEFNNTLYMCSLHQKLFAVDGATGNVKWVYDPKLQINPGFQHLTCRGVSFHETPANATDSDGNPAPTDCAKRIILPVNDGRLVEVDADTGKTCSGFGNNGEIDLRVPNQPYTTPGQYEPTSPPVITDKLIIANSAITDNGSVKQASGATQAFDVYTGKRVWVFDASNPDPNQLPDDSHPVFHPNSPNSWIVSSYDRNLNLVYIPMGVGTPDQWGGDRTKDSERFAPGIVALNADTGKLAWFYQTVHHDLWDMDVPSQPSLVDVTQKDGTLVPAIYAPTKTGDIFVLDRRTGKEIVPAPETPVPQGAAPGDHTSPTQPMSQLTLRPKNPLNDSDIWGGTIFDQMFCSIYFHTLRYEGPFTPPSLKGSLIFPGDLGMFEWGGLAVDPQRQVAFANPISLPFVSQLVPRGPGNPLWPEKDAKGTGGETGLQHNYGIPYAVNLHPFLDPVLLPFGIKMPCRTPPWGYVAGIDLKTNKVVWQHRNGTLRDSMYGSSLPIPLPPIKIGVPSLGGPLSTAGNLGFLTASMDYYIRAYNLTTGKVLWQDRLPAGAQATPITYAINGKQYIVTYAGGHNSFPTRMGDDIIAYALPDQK

[7] = substrate 333 mM final, activity on D-glucose = 100%

SMILES	Relative activity (%) [3, 7]	Activity of the enzyme on the substrate (in words) ([3]; summary of Tables 1 and 2)	other results
c1cnc2c(c1)ccc1cccnc12 [1,10-Phenanthroline]	–	–	Inhibitory effect ([1]; 1 mM final concentration, methanol 10% (v/v)): 62.0%; Inhibit (%) ([1]; 5 mM final concentration, methanol 10% (v/v)): 76%; Inhibit (%) ([1]; 10 mM final concentration, methanol 10% (v/v)): 85%; Inhibit (%) ([1]; 25 mM final concentration, methanol 10% (v/v)): 91%; Inhibit (%) ([1]; 50 mM final concentration, methanol 10% (v/v)): 95%; Inhibition (%) ([1]; additive 1 mM final concentration): 62.0%; Inhibition (in words) [2]: not inhibited
O=C[C@H](O)[C@@H](O)[C@H](O)CO [D-Xylose]	9.1%	–	–
CCO [Ethanol]	0.1> %	Almost no activity; also recorded: almost no effect	–
O=C(O)[C@H](O)[C@@H](O)[C@H](O)[C@H](O)CO [Gluconic acid]	–	–	Activity of the enzyme on the substrate (in words) [3]: Almost no activity; also recorded: almost no effect; Relative activity (%) [3]: 0.1> %
OCC(O)CO [Glycerol]	0.1> %	Almost no activity; also recorded: almost no effect	–
O=C[C@H](O)[C@@H](O)[C@@H](O)CO [L-Arabinose]	0.1> %	Almost no activity; also recorded: almost no effect	–
C[C@H](O)[C@H](O)[C@@H](O)[C@@H](O)C=O [L-Rhamnose]	0.1> %	Almost no activity; also recorded: almost no effect	–
O=C(CO)[C@@H](O)[C@H](O)[C@@H](O)CO [L-Sorbose]	0.1> %	Almost no activity; also recorded: almost no effect	–
OC[C@H]1O[C@@H](O[C@H]2[C@H](O)[C@@H](O)C(O)O[C@@H]2CO)[C@H](O)[C@@H](O)[C@H]1O (stereo partly shown) [Lactose]	0.1> %	Almost no activity; also recorded: almost no effect	–
OC[C@H]1O[C@H](O[C@H]2[C@H](O)[C@@H](O)[C@H](O)O[C@@H]2CO)[C@H](O)[C@@H](O)[C@@H]1O [Maltose]	1.4%	lower activity; also recorded: weakly	Relative activity (%) ([3]; substrate final conc. 100 mM, D-glucose = 100%): 0.5%; Relative activity (%) ([3]; substrate final conc. 550 mM, D-glucose = 100%): 2.8%; Activity on maltose [4]: 3%; Activity on maltose [5]: 3.2%; Activity on maltose [6]: 5%
OC[C@H]1O[C@@](CO)(O[C@H]2O[C@H](CO)[C@@H](O)[C@H](O)[C@H]2O)[C@@H](O)[C@@H]1O [Sucrose]	0.1> %	Almost no activity; also recorded: almost no effect	–
